# Measurements as given in patent US6503928B2, “Arylpiperidine and aryl-1,2,5,6-tetrahydropyridine amide derivatives” (Wyeth, priority 1998, dated 2003).
# Structures can show the parent of a compound that is named as a salt.
# Legend:
# [1] = target: T1, human 5HT1A receptor (Homo sapiens, UniProt P08908); assay: 5-HT1A receptor binding assay ([3H] 8-OH-DPAT displacement); conditions: displacement of [3H] 8-OH-DPAT, CHO cells stably transfected with human 5HT1A receptor
# T1 construct: expressed in transfected cells; host or cells: CHO cells (stably transfected)
# T1 sequence (P08908 1-422): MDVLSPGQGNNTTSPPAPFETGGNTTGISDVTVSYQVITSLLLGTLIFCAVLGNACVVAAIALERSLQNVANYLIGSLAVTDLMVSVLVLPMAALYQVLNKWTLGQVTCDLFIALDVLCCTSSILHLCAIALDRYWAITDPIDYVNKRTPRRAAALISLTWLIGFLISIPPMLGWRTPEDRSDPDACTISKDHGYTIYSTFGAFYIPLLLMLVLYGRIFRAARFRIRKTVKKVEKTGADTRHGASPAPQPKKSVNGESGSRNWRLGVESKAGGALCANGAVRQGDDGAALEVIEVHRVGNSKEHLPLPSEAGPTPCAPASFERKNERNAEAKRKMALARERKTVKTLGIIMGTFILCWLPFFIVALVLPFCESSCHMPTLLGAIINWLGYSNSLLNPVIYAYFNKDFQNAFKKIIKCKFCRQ
# Protocol: 5-HT1A Receptor Binding Assay
# High affinity for the serotonin 5-HT1A receptor was established by testing the compound's ability to displace [^3H] 8-OH-DPAT bindino in CHO cells stably transfected with human 5HT1A receptor. Stably transfected CHO cells are grown in DMEM containing 10% heat inactivated FBS and non-essential amino acids. Cells are scraped off the plate, transferred to centrifuge tubes, and washed twice by centrifugation (2000 rpm for 10 min., 4° C.) in buffer (50 mM Tris pH 7.5). The resulting pellets are aliquoted and placed at −80° C. On the day of assay, the cells are thawed on ice and resuspended in buffer. The binding assay is performed in a 96 well microtiter plate in a total volume of 250 μL. Non-specific binding is determined in the presence of […] 5-HT, final ligand concentration is 1.5 nM. Following a 30 minute incubation at room temperature, the reaction is terminated by the addition of ice cold buffer and rapid filtration through a GF/B filter presoaked for 30 minutes in 0.5% PEI. Compounds are initially tested in a single point assay to determine percent inhibition at […], and Ki values are determined for the active compounds.
# [2] = target: T1, human 5HT1A receptor; assay: 5-HT1A receptor intrinsic activity assay (cAMP); assay type: cell-based; conditions: for EC50: agonist mode: reversal of forskolin-stimulated cAMP in CHO cells transfected with human 5-HT1A; for IC50: antagonist mode: reversal of agonist-induced activity, antagonist preincubated 20 minutes before agonist and forskolin
# Protocol: 5-HT1A Receptor Intrinsic Activity Assay
# The intrinsic activity of compounds of the present invention was established by testing the claimed compounds ability to reverse the stimulation of cyclic adenosinemonophosphate (cAMP) in CHO cells stably transfected with the human 5-HT1A receptor.
# Stably transfected CHO cells were grown in DMEM containing 10% heat inactivated FBS and non-essential amino acids. The cells are plated at a density of […] cells per well in a 24 well plate and incubated for 2 days in a CO2 incubator. On the second day, the media is replaced with 0.5 mL treatment buffer (DMEM+25 mM HEPES, 5 mM theophylline, 10 μM pargyline) and incubated for 10 minutes at 37° C. Wells are treated with forskolin (1 μM final concentration) followed immediately by the test compound (0.1 and 1 μM for initial screen) and incubated for an additional 10 minutes at 37° C. The reaction is terminated by removal of the media and addition of 0.5 mL ice cold assay buffer (supplied in the RIA kit). Plates are stored at −20° C. prior to assessment of cAMP formation by RIA. EC50 values are determined for the active test compounds. Compounds shown to have no agonist activities (Emax=0%) are further analyzed for their ability to reverse agonist-induced activity. In separate experiments, 6 concentrations of antagonist are preincubated for 20 minutes prior to the addition of agonist and forskolin. Cells are harvested as described above. The cAMP kit is supplied by Amersham and the RIA is performed as per kit instructions, and calculations of IC50 performed by GraphPad Prism.
# [3] = agonist mode: reversal of forskolin-stimulated cAMP, Emax=0% means no agonist activity
SMILES,melting point,Ki [1],also measured
"COc1ccc(F)cc1C1CCN(C[C@@H](Cc2ccccc2)N(C)C(=O)C2(C)CCCCC2)CC1 (as salt: fumarate) [Example 1, 1-Methyl-cyclohexanecarboxylic Acid {(1R)-1-Benzyl-2-[4-(5-fluoro-2-methoxy-phenyl)-piperidine-1-yl]-ethyl}-methyl-amide]",160 to 165 °C,,
"COc1ccccc1C1=CCN(C[C@@H](Cc2ccccc2)NC(=O)C2CCCCC2)CC1 (as salt: fumarate) [Example 3, (R)-Cyclohexanecarboxylic Acid {1-Benzyl-2-[4-(2-methoxy-phenyl)-3,6-dihydro-2H-pyridin-1-yl]-ethyl}-amide]",146 to 148 °C,,
"COc1ccccc1C1CCN(C[C@@H](Cc2ccncc2)NC(=O)C2(C)CCCCC2)CC1 (as salt: fumarate) [Example 8, 1-Methyl-cyclohexanecarboxylic Acid {(1R)-2-[4-(2-Methoxy-phenyl)-piperidin-1-yl]-1-pyridin-4-ylmethyl-ethyl}-amide]",108 to 110 °C,,
"COc1ccccc1C1CCN(C[C@@H](Cc2ccncc2)N(C)C(=O)C2CCCCC2)CC1 (as salt: hydrochloride) [Example 10, Cyclohexanecarboxylic acid {(1R)-2-[4-(2-Methoxy-phenyl)-piperidin-1-yl]-1-pyridin-4-ylmethyl-ethyl}-methyl-amide]",158 to 160 °C,,
"COc1ccccc1C1=CCN(C[C@@H](Cc2ccccc2)NC(=O)C2(C)CCCCC2)CC1 [Example 4, (R)-1-Methyl-cyclohexanecarboxylic Acid {1-Benzyl-2-[4-(2-methoxy-phenyl)-3,6-dihydro-2H-pyridin-1-yl]-ethyl}-amide]",,0.25 nM,EC50 [2]: 4.3 nM
"COc1ccccc1C1CCN(C[C@@H](Cc2cccnc2)N(C)C(=O)C2CCCCC2)CC1 (as salt: hydrochloride) [Example 9, Cyclohexanecarboxylic Acids {(1R)-2-[4-(2-Methoxy-phenyl)-piperidin-1-yl]-1-pyridin-3-ylmethyl-ethyl}-methyl-amide]",148 to 150 °C,,
"COc1ccccc1C1=CCN(C[C@@H](Cc2ccccc2)NC(=O)C2CCCCC2)CC1 [Example 3, (R)-Cyclohexanecarboxylic Acid {1-Benzyl-2-[4-(2-methoxy-phenyl)-3,6-dihydro-2H-pyridin-1-yl]-ethyl}-amide]",,0.22 nM,EC50 [2]: 3.4 nM
"COc1ccccc1C1CCN(C[C@@H](Cc2cccnc2)N(C)C(=O)C2CCCCC2)CC1 [Example 9, Cyclohexanecarboxylic Acids {(1R)-2-[4-(2-Methoxy-phenyl)-piperidin-1-yl]-1-pyridin-3-ylmethyl-ethyl}-methyl-amide]",,1.77 nM,"Emax [2, 3]: 0%"
"COc1ccccc1C1=CCN(C[C@@H](Cc2ccccc2)NC(=O)C2(C)CCCCC2)CC1 (as salt: fumarate) [Example 4, (R)-1-Methyl-cyclohexanecarboxylic Acid {1-Benzyl-2-[4-(2-methoxy-phenyl)-3,6-dihydro-2H-pyridin-1-yl]-ethyl}-amide]",102 to 104 °C,,
"COc1ccccc1C1CCN(C[C@@H](Cc2cccnc2)NC(=O)C2(C)CCCCC2)CC1 (as salt: fumarate) [Example 7, 1-Methyl-cyclohexanecarboxylic Acid {(1R)-2-[4-(2-Methoxy-phenyl)-piperidin-1-yl]-1-pyridin-3-ylmethyl-ethyl}-amide]",99 to 101 °C,,
"COc1ccccc1C1CCN(C[C@@H](Cc2ccccc2)NC(=O)C2(C)CCCCC2)CC1 (as salt: fumarate) [Example 5, (R)-1-Methyl-cyclohexanecarboxylic Acid {1-Benzyl-2-[4-(2-methoxy-phenyl)-piperidin-1-yl]-ethyl}-amide]",77 to 79 °C,,
"COc1ccccc1C1CCN(C[C@@H](Cc2cccnc2)NC(=O)C2(C)CCCCC2)CC1 [Example 7, 1-Methyl-cyclohexanecarboxylic Acid {(1R)-2-[4-(2-Methoxy-phenyl)-piperidin-1-yl]-1-pyridin-3-ylmethyl-ethyl}-amide]",,0.74 nM,"Emax [2, 3]: 0%; IC50 [2]: 38 nM"
"COc1ccc(F)cc1C1=CCN(C[C@@H](Cc2ccccc2)N(C)C(=O)C2(C)CCCCC2)CC1 [Example 2, 1-Methyl-cyclohexanecarboxylic Acid {(1R)-1-Benzyl-2-[4-(5-fluoro-2-methoxy-phenyl)-1,2,5,6-tetrahydro-4H-pyridin-1-yl]-ethyl}-methyl-amide]",,4.9 nM,"cAMP Emax [2, 3]: 0%"
"COc1ccccc1C1CCN(C[C@@H](Cc2ccccc2)NC(=O)C2CCCCC2)CC1 (as salt: fumarate) [Example 6, (R)-Cyclohexanecarboxylic Acid {1-Benzyl-2-[4-(2-methoxy-phenyl)-piperidin-1-yl]-ethyl}-amide]",103 to 105 °C,,
"COc1ccccc1C1CCN(C[C@@H](Cc2ccncc2)NC(=O)C2(C)CCCCC2)CC1 [Example 8, 1-Methyl-cyclohexanecarboxylic Acid {(1R)-2-[4-(2-Methoxy-phenyl)-piperidin-1-yl]-1-pyridin-4-ylmethyl-ethyl}-amide]",,0.63 nM,"Emax [2, 3]: 0%"
"COc1ccccc1C1CCN(C[C@@H](Cc2ccncc2)N(C)C(=O)C2CCCCC2)CC1 [Example 10, Cyclohexanecarboxylic acid {(1R)-2-[4-(2-Methoxy-phenyl)-piperidin-1-yl]-1-pyridin-4-ylmethyl-ethyl}-methyl-amide]",,1.18 nM,"Emax [2, 3]: 0%; IC50 [2]: 19.3 nM"
